Results taken from patent publication US11136313B2, “Compounds, compositions, and methods for modulating CFTR” (Proteostasis Therapeutics, Inc., priority 2015, dated 2021).

The compounds below were run against T1, ΔF508-CFTR (Homo sapiens, UniProt P13569, DEL508-508) (assay: hBE equivalent current (Ieq) assay: AUC of equivalent chloride current after forskolin/VX-770 in primary lung epithelial cells homozygous for ΔF508). Details: relative to CFTR amplifier (Compound A)+VX-809 (3 uM), compound at 10 uM and Compound A at 3 uM, 24 h treatment.
T1 construct: Primary lung epithelial cells homozygous for the Cystic Fibrosis-causing ΔF508 mutation were differentiated for a minimum of 4 weeks; endogenous in cells; host or cells: primary lung epithelial cells (hBE) homozygous for ΔF508, differentiated at an air-liquid interface
T1 sequence (P13569 with tags, fused parts or gaps DEL508-508): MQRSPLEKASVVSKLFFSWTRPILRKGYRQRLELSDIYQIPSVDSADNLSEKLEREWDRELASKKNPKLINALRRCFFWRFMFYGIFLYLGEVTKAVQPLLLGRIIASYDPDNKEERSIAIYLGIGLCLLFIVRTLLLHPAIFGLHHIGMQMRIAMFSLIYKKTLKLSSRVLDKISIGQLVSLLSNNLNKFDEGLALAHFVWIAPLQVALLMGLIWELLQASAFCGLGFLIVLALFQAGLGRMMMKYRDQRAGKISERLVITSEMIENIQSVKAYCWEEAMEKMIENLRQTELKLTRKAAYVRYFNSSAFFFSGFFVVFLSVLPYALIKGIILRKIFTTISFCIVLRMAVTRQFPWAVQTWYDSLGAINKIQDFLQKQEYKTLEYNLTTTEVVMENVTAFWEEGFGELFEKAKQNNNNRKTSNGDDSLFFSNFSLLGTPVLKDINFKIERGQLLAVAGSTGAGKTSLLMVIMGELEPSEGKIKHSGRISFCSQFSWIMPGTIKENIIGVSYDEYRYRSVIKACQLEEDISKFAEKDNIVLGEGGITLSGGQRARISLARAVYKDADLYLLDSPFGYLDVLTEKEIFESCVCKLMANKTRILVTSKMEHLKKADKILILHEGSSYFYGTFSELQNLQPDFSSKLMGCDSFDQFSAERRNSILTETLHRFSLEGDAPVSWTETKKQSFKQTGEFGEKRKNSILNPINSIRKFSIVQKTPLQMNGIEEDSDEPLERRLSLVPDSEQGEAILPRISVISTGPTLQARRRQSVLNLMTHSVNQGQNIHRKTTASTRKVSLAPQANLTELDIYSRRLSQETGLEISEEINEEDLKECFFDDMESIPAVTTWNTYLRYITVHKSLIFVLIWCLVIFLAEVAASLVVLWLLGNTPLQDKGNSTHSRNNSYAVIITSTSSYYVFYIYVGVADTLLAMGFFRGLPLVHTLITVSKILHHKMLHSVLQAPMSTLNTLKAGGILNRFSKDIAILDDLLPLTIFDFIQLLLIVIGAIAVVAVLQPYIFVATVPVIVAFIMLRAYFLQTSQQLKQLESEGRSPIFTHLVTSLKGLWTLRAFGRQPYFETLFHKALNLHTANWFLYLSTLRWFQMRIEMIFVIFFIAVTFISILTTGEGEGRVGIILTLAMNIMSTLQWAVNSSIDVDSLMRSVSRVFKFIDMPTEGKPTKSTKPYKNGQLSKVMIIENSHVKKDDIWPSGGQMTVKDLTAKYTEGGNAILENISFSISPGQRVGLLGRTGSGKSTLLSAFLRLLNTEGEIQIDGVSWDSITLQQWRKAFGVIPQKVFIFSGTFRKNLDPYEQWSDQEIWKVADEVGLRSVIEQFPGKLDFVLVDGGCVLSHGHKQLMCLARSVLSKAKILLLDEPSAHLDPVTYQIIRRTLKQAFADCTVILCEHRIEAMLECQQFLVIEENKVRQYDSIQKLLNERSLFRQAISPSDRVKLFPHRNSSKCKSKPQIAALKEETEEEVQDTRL
Type: cell-based
Experimental: ii. hBE Equivalent Current (Ieq) Assay
Primary lung epithelial cells homozygous for the Cystic Fibrosis-causing ΔF508 mutation were differentiated for a minimum of 4 weeks in an air-liquid interface on Costar 24 well HTS filter plates prior to the equivalent current (Ieq) measurements. Cells were apically mucus-washed for 30 minutes 24 h prior to treatment with compounds. The basolateral media was removed and replaced with media containing the compound of interest diluted to its final concentration from DMSO stocks. Treated cells were incubated at 37° C. and 5% CO2 for 24 hours. At the end of the treatment period, the media was changed to the Ieq experimental solution for 2 hours before the experiment and plates are maintained in a CO2-free incubator during this period. The plates containing the cells were then placed in pre-warmed heating blocks at 36° C.±0.5 for 15 minutes before measurements are taken. The transepithelial voltage (VT) and conductance (GT) were measured using a custom 24 channel current clamp (TECC-24) with 24 well electrode manifold. The Ieq assay measurements were made following additions with standardized time periods: • 1. The baseline VT and GT values were measured for approximately 20 minutes. • 2. Benzamil was added to block ENaC for 15 minutes. • 3. Forskolin plus VX-770 were added to maximally activate ΔF508-CFTR for 27 minutes. • 4. Bumetanide was added to inhibit the NaK2Cl cotransporter and shut-off secretion of chloride.
The activity data captured was the area under the curve (AUC) for the traces of the equivalent chloride current. The AUC was collected from the time of the forskolin/VX-770 addition until the inhibition by bumetanide addition. Correction in response to compound treatment was scored as the increase in the AUC for compound-treated samples over that of vehicle-treated samples.
(+ indicates activity<50% of an CFTR amplifier (Compound A)+VX-809 (3 uM) with compound at 10 uM and Compound A at 3 uM; ++ indicates activity>50% of CFTR amplifier+VX-809 (3 uM) with compound at 10 uM and Compound A at 3 uM.

SMILES	Activity
Cc1c(-c2cc(C(=O)O)c3cc(C4CC4)cc(C)c3n2)oc2ccccc12 [Compound 28, 6-Cyclopropyl-8-methyl-2-(3-methyl-1-benzofuran-2-yl)quinoline-4-carboxylic Acid]	++ (activity>50% of CFTR amplifier+VX-809 (3 uM) with compound at 10 uM and Compound A at 3 uM)
Cc1cc(C)c2nc(-c3oc4ccccc4c3C)cc(CO)c2c1 [Compound 29, [6,8-Dimethyl-2-(3-methyl-1-benzofuran-2-yl)quinolin-4-yl]methanol]	+ (activity<50% of an CFTR amplifier (Compound A)+VX-809 (3 uM) with compound at 10 uM and Compound A at 3 uM)
Cc1c(-c2cc(C(=O)O)c3c(OCc4ccccc4)ccc(C)c3n2)oc2ccccc12 [Compound 30, 5-(benzyloxy)-8-methyl-2-(3-methyl-1-benzofuran-2-yl)quinoline-4-carboxylic acid]	++ (activity>50% of CFTR amplifier+VX-809 (3 uM) with compound at 10 uM and Compound A at 3 uM)
Cc1c(-c2cc(C(=O)O)c3c(C)ccc(C)c3n2)oc2ccccc12 [Compound 31, 5,8-Dimethyl-2-(3-methyl-1-benzofuran-2-yl)quinoline-4-carboxylic acid]	++ (activity>50% of CFTR amplifier+VX-809 (3 uM) with compound at 10 uM and Compound A at 3 uM)
CCc1c(-c2cc(C(=O)O)c3c(C)ccc(C)c3n2)oc2ccccc12 [Compound 32, 2-(3-Ethyl-1-benzofuran-2-yl)-5,8-dimethylquinoline-4-carboxylic acid]	++ (activity>50% of CFTR amplifier+VX-809 (3 uM) with compound at 10 uM and Compound A at 3 uM)
Cc1c(-c2cc(C(=O)O)c3c(OCc4ccccc4)ccc(C)c3n2)sc2ccccc12 [Compound 33, 5-(Benzyloxy)-8-methyl-2-(3-methyl-1-benzothiophen-2-yl)quinoline-4-carboxylic acid]	++ (activity>50% of CFTR amplifier+VX-809 (3 uM) with compound at 10 uM and Compound A at 3 uM)
Cc1ccc(OCc2ccccc2)c2c(C(=O)O)cc(-c3cc4ccccc4s3)nc12 [Compound 34, 2-(1-Benzothiophen-2-yl)-5-(benzyloxy)-8-methylquinoline-4-carboxylic acid]	++ (activity>50% of CFTR amplifier+VX-809 (3 uM) with compound at 10 uM and Compound A at 3 uM)
Cc1oc2ccccc2c1-c1cc(C(=O)O)c2c(OCc3ccccc3)ccc(C)c2n1 [Compound 35, 5-(Benzyloxy)-8-methyl-2-(2-methyl-1-benzofuran-3-yl)quinoline-4-carboxylic acid]	++ (activity>50% of CFTR amplifier+VX-809 (3 uM) with compound at 10 uM and Compound A at 3 uM)
Cc1c(-c2cc(C(=O)O)c3cc(C(C)C)cc(C)c3n2)oc2ccccc12 [Compound 36]	++ (activity>50% of CFTR amplifier+VX-809 (3 uM) with compound at 10 uM and Compound A at 3 uM)
Cc1c(-c2cc(C(=O)O)c3cc(-c4ccccc4)cc(C)c3n2)oc2ccccc12 [Compound 37]	++ (activity>50% of CFTR amplifier+VX-809 (3 uM) with compound at 10 uM and Compound A at 3 uM)
Cc1ccc(C)c2c(C(=O)O)cc(-c3oc4ccccc4c3Cl)nc12 [Compound 38, 2-(3-Chloro-1-benzofuran-2-yl)-5,8-dimethylquinoline-4-carboxylic acid]	+ (activity<50% of an CFTR amplifier (Compound A)+VX-809 (3 uM) with compound at 10 uM and Compound A at 3 uM)
Cc1ccc(C)c2c(C(=O)O)cc(-c3oc4ccccc4c3Br)nc12 [Compound 39, 2-(3-Bromo-1-benzofuran-2-yl)-5,8-dimethylquinoline-4-carboxylic acid]	+ (activity<50% of an CFTR amplifier (Compound A)+VX-809 (3 uM) with compound at 10 uM and Compound A at 3 uM)
Cc1c(-c2cc(C(=O)O)c3c(C)ccc(OCc4ccccc4)c3n2)oc2ccccc12 [Compound 40, 8-(Benzyloxy)-5-methyl-2-(3-methyl-1-benzofuran-2-yl)quinoline-4-carboxylic acid]	+ (activity<50% of an CFTR amplifier (Compound A)+VX-809 (3 uM) with compound at 10 uM and Compound A at 3 uM)
Cc1cc2c(C(=O)O)cc(-c3oc4ccccc4c3C)nc2cc1OCc1ccccc1 [Compound 41, 7-(Benzyloxy)-6-methyl-2-(3-methyl-1-benzofuran-2-yl)quinoline-4-carboxylic acid]	+ (activity<50% of an CFTR amplifier (Compound A)+VX-809 (3 uM) with compound at 10 uM and Compound A at 3 uM)
Cc1c(-c2cc(C(=O)O)c3c(OCCc4ccccc4)ccc(C)c3n2)oc2ccccc12 [Compound 73, 8-methyl-2-(3-methyl-1-benzofuran-2-yl)-5-(2-phenylethoxy)quinoline-4-carboxylic acid]	++ (activity>50% of CFTR amplifier+VX-809 (3 uM) with compound at 10 uM and Compound A at 3 uM)
Cc1c(-c2cc(C(=O)O)c3c(OC4CC(c5ccccc5)C4)ccc(C)c3n2)oc2ccccc12 (centres unmarked) [Compound 75, 8-Methyl-2-(3-methyl-1-benzofuran-2-yl)-5-(3-phenylcyclobutoxy)quinoline-4-carboxylic acid]	++ (activity>50% of CFTR amplifier+VX-809 (3 uM) with compound at 10 uM and Compound A at 3 uM)
Cc1c(-c2cc(C(=O)O)c3c(O[C@H]4CC[C@H](c5ccccc5)CC4)ccc(C)c3n2)oc2ccccc12 [Compound 76, 8-Methyl-2-(3-methyl-1-benzofuran-2-yl)-5-[[(1r,4r)-4-phenylcyclohexyl]oxy]quinoline-4-carboxylic acid]	++ (activity>50% of CFTR amplifier+VX-809 (3 uM) with compound at 10 uM and Compound A at 3 uM)
Cc1c(-c2cc(C(=O)O)c3c(OC4CCCC(c5ccccc5)C4)ccc(C)c3n2)oc2ccccc12 (centres unmarked) [Compound 77, 8-Methyl-2-(3-methyl-1-benzofuran-2-yl)-5-[(3-phenylcyclohexyl)oxy]quinoline-4-carboxylic acid]	++ (activity>50% of CFTR amplifier+VX-809 (3 uM) with compound at 10 uM and Compound A at 3 uM)
Cc1c(-c2cc(C(=O)O)c3c(OC4CCCCC4)ccc(C)c3n2)oc2ccccc12 [Compound 79, 5-(Cyclohexyloxy)-8-methyl-2-(3-methyl-1-benzofuran-2-yl)quinoline-4-carboxylic acid]	++ (activity>50% of CFTR amplifier+VX-809 (3 uM) with compound at 10 uM and Compound A at 3 uM)
Cc1c(-c2cc(C(=O)O)c3c(OC(=O)Nc4ccccc4)ccc(C)c3n2)oc2ccccc12 [Compound 81, 8-Methyl-2-(3-methyl-1-benzofuran-2-yl)-5-[(phenylcarbamoyl)oxy]quinoline-4-carboxylic Acid]	+ (activity<50% of an CFTR amplifier (Compound A)+VX-809 (3 uM) with compound at 10 uM and Compound A at 3 uM)
Cc1ccc(OCc2ccccc2)c2c(C(=O)O)cc(-c3snc4ccccc34)nc12 [Compound 86, 2-(2,1-Benzothiazol-3-yl)-5-(benzyloxy)-8-methylquinoline-4-carboxylic Acid]	++ (activity>50% of CFTR amplifier+VX-809 (3 uM) with compound at 10 uM and Compound A at 3 uM)
Cc1ccc(OCc2ccccc2)c2c(C(=O)O)cc(-c3csc4ccccc34)nc12 [Compound 95, 2-(1-Benzothiophen-3-yl)-5-(benzyloxy)-8-methylquinoline-4-carboxylic acid]	++ (activity>50% of CFTR amplifier+VX-809 (3 uM) with compound at 10 uM and Compound A at 3 uM)
Cc1c(-c2cc(C(=O)O)c3c(OC4CCC(c5nnco5)CC4)ccc(C)c3n2)oc2ccccc12 (centres unmarked) [Compound 97, 8-Methyl-2-(3-methyl-1-benzofuran-2-yl)-5-[[4-(1,3,4-oxadiazol-2-yl)cyclohexyl]oxy]quinoline-4-carboxylic acid]	++ (activity>50% of CFTR amplifier+VX-809 (3 uM) with compound at 10 uM and Compound A at 3 uM)
